Target: menin protein (Homo sapiens (Human), UniProt O00255)
Assay: biochemical
Type: binding
Details: FP competitive binding; menin protein 4 nM, FAM-MM2 probe 2 nM; read-out: Menin Binding Affinity IC50
Procedure, shortened: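 Test compounds displaced FAM-MM2 (2 nM) from 4 nM menin after 30 min equilibration at room temperature in PBS buffer containing bovine γ-globulin, 4% DMSO and Triton X-100. Binding was followed by fluorescence polarization. Competition curves were fitted by nonlinear regression to give IC50 and Ki.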

Sequence of menin protein (O00255 whole entry): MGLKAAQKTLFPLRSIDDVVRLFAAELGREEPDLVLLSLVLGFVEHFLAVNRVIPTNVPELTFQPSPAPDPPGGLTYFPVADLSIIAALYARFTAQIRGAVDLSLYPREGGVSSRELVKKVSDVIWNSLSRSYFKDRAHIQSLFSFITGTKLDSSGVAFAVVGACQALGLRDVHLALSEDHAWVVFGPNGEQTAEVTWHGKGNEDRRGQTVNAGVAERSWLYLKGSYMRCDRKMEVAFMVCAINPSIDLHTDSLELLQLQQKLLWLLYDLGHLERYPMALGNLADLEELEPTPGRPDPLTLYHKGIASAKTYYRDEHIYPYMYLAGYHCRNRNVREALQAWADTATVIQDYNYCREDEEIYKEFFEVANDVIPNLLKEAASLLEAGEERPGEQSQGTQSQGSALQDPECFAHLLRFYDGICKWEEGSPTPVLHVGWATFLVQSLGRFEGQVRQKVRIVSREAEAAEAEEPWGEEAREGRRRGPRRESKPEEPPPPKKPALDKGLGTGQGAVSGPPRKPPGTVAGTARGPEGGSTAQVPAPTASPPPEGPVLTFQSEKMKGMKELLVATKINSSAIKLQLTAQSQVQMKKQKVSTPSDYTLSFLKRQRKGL

SMILES | IC50 [µM]
CC(=O)O[C@H]1CCC[C@@H]1C(C#N)(c1ccccc1F)C1CCN(CC2CN(c3ccc(S(=O)(=O)C4CC4)cc3)C2)CC1 (mixture of isomers) [compound 310, rac-(1S,2R)-2-(cyano(1-((1-(4-(cyclopropylsulfonyl)phenyl)azetidin-3-yl)methyl)piperidin-4-yl)(2-fluorophenyl)methyl) cyclopentyl acetate] | 0.045
CC(=O)O[C@@H]1CCC[C@H]1C(C#N)(c1ccccc1F)C1CCN(CC2CN(c3ccc(S(=O)(=O)C4CC4)cc3)C2)CC1 (mixture of isomers) [compound 311, rac-(1R,2S)-2-(cyano(1-((1-(4-(cyclopropylsulfonyl)phenyl)azetidin-3-yl)methyl)piperidin-4-yl)(2-fluorophenyl)methyl) cyclopentyl acetate] | 5.7
CC(=O)O[C@H]1CCC[C@@H]1C(C#N)(c1cccc(F)c1)C1CCN(CC2CN(c3ccc(S(=O)(=O)c4ccccc4)cc3)C2)CC1 (mixture of isomers) [compound 312, rac-(1S,2R)-2-(cyano(3-fluorophenyl)(1-((1-(4-(phenylsulfonyl)phenyl)azetidin-3-yl)methyl)piperidin-4-yl)methyl)cyclopentyl acetate] | 0.013
CC(=O)O[C@@H]1CCC[C@H]1C(C#N)(c1cccc(F)c1)C1CCN(CC2CN(c3ccc(S(=O)(=O)c4ccccc4)cc3)C2)CC1 (mixture of isomers) [compound 313, rac-(1R,2S)-2-(cyano(3-fluorophenyl)(1-((1-(4-(phenylsulfonyl)phenyl)azetidin-3-yl)methyl)piperidin-4-yl)methyl)cyclopentyl acetate] | 13.8
CC(=O)O[C@@H]1CCC[C@H]1C1(C2CCN(CCCOc3ccc(C#N)cc3)CC2)CN(C)Cc2ccc(F)cc21 (mixture of isomers) [compound 315, rac-(1R,2S)-2-(4-(1-(3-(4-cyanophenoxy)propyl)piperidin-4-yl)-6-fluoro-2-methyl-1,2,3,4-tetrahydroisoquinolin-4-yl)cyclopentyl acetate] | 0.131
CC(=O)O[C@@H]1CCC[C@H]1C1(C2CCN(CC3CN(c4ccc(S(=O)(=O)C5CC5)cc4)C3)CC2)CN(C)Cc2ccc(F)cc21 (mixture of isomers) [compound 317, rac-(1R,2S)-2-(4-(1-((1-(4-(cyclopropylsulfonyl)phenyl)azetidin-3-yl)methyl)piperidin-4-yl)-6-fluoro-2-methyl-1,2,3,4-tetrahydroisoquinolin-4-yl)cyclopentyl acetate] | 0.161
CNC(=O)N[C@@H]1CCC[C@H]1C(C#N)(c1ccccc1)C1CCN(CCCOc2ccc(C#N)cc2)CC1 (mixture of isomers) [compound 318, rac-1-((1R,2S)-2-(cyano(1-(3-(4-cyanophenoxy)propyl)piperidin-4-yl)(phenyl)methyl)cyclopentyl)-3-methylurea] | 20.9
COC(=O)N[C@@H]1CCC[C@H]1C(C#N)(c1ccccc1)C1CCN(CC2CN(c3ccc(S(=O)(=O)C4CC4)cc3)C2)CC1 (mixture of isomers) [compound 320, rac-methyl ((1R,2S)-2-(cyano(1-((1-(4-(cyclopropylsulfonyl)phenyl)azetidin-3-yl)methyl)piperidin-4-yl)(phenyl)methyl)cyclopentyl)carbamate] | 5.1
CNC(=O)N[C@@H]1CCC[C@H]1C(CN)(c1ccccc1)C1CCN(CC2CN(c3ccc(S(=O)(=O)c4ccccc4)cc3)C2)CC1 (mixture of isomers) [compound 322, rac-1-((1R,2S)-2-(2-amino-1-phenyl-1-(1-((1-(4-(phenylsulfonyl)phenyl)azetidin-3-yl)methyl)piperidin-4-yl)ethyl)cyclopentyl)-3-methylurea] | 0.108
COC(=O)N1Cc2ccccc2C(C2CCN(CCCOc3ccc(C#N)cc3)CC2)([C@@H]2CCC[C@H]2OC)C1 (mixture of isomers) [compound 323, methyl rac-4-(1-(3-(4-cyanophenoxy)propyl)piperidin-4-yl)-4-((1S,2R)-2-methoxycyclopentyl)-3,4-dihydroisoquinoline-2(1H)-carboxylate] | 10.4
COC(=O)N1Cc2ccccc2C(C2CCN(CCCOc3ccc(C#N)cc3)CC2)([C@H]2CCC[C@@H]2OC)C1 (mixture of isomers) [compound 324, methyl rac-4-(1-(3-(4-cyanophenoxy)propyl)piperidin-4-yl)-4-((1R,2S)-2-methoxycyclopentyl)-3,4-dihydroisoquinoline-2(1H)-carboxylate] | 9.6
CO[C@H]1CCC[C@@H]1C1(C2CCN(CCCOc3ccc(C#N)cc3)CC2)CN(C)Cc2ccccc21 (mixture of isomers) [compound 325, rac-4-(3-(4-(4-((1R,2S)-2-methoxycyclopentyl)-2-methyl-1,2,3,4-tetrahydroisoquinolin-4-yl)piperidin-1-yl)propoxy)benzonitrile] | 1.8
CO[C@@H]1CCC[C@H]1C1(C2CCN(CCCOc3ccc(C#N)cc3)CC2)CN(C)Cc2ccccc21 (mixture of isomers) [compound 326, rac-4-(3-(4-(4-((1S,2R)-2-methoxycyclopentyl)-2-methyl-1,2,3,4-tetrahydroisoquinolin-4-yl)piperidin-1-yl)propoxy)benzonitrile] | 2.7
CO[C@@H]1CCC[C@H]1C1(C2CCN(CCCOc3ccc(C(=O)O)cc3)CC2)CNCc2ccccc21 (mixture of isomers) [compound 327, rac-4-(3-(4-(4-((1S,2R)-2-methoxycyclopentyl)-1,2,3,4-tetrahydroisoquinolin-4-yl)piperidin-1-yl)propoxy)benzoic acid] | 485
CO[C@H]1CCC[C@@H]1C1(C2CCN(CCCOc3ccc(C(=O)O)cc3)CC2)CNCc2ccccc21 (mixture of isomers) [compound 328, rac-4-(3-(4-(4-((1R,2S)-2-methoxycyclopentyl)-1,2,3,4-tetrahydroisoquinolin-4-yl)piperidin-1-yl)propoxy)benzoic acid] | 119
COC(=O)[C@H]1CCC[C@@H]1C(C#N)(c1ccccc1)C1CCN(CC2CN(c3ccc(S(=O)(=O)C4CC4)cc3)C2)CC1 (mixture of isomers) [compound 332, methyl rac-(1S,2S)-2-(cyano(1-((1-(4-(cyclopropylsulfonyl)phenyl)azetidin-3-yl)methyl)piperidin-4-yl)(phenyl)methyl)cyclopentane-1-carboxylate] | 0.261
COC(=O)[C@@H]1CCC[C@H]1C(C#N)(c1ccccc1)C1CCN(CC2CN(c3ccc(S(=O)(=O)C4CC4)cc3)C2)CC1 (mixture of isomers) [compound 333, methyl rac-(1R,2R)-2-(cyano(1-((1-(4-(cyclopropylsulfonyl)phenyl)azetidin-3-yl)(phenyl)methyl)cyclopentane-1-carboxylate] | 5.1
CNC(=O)[C@H]1CCC[C@@H]1C(C#N)(c1ccccc1)C1CCN(CC2CN(c3ccc(S(=O)(=O)C4CC4)cc3)C2)CC1 (mixture of isomers) [compound 334, rac-(1S,2S)-2-(cyano(1-((1-(4-(cyclopropylsulfonyl)phenyl)azetidin-3-yl)methyl)piperidin-4-yl)(phenyl)methyl)-N-methylcyclopentane-1-carboxylate] | 3.2
CCNC(=O)[C@H]1CCC[C@@H]1C(C#N)(c1ccccc1)C1CCN(CC2CN(c3ccc(S(=O)(=O)C4CC4)cc3)C2)CC1 (mixture of isomers) [compound 335, rac-(1S,2S)-2-(cyano(1-((1-(4-(cyclopropylsulfonyl)phenyl)azetidin-3-yl)methyl)piperidin-4-yl)(phenyl)methyl)-N-ethylcyclopentane-1-carboxamide] | 5.6
COCC[C@H]1CCC[C@@H]1C(C#N)(c1ccccc1)C1CCN(CC2CN(c3ccc(S(=O)(=O)c4ccnc(C)c4)cc3)C2)CC1 (mixture of isomers) [compound 336, rac-2-((1S,2R)-2-(2-methoxyethyl)cyclopentyl)-2-(1-((1-(4-((2-methylpyridin-4-yl)sulfonyl)phenyl)azetidin-3-yl)methyl)piperidin-4-yl)-2-phenylacetonitrile] | 29.4
COCC[C@@H]1CCC[C@H]1C(C#N)(c1ccccc1)C1CCN(CC2CN(c3ccc(S(=O)(=O)c4ccnc(C)c4)cc3)C2)CC1 (mixture of isomers) [compound 337, rac-2-((1R,2S)-2-(2-methoxyethyl)cyclopentyl)-2-(1-((1-(4-((2-methylpyridin-4-yl)sulfonyl)phenyl)azetidin-3-yl)methyl)piperidin-4-yl)-2-phenylacetonitrile] | 25.8
CNC(=O)C[C@@H]1CCC[C@H]1C(C#N)(c1ccccc1)C1CCN(CC2CN(c3ccc(S(=O)(=O)c4ccncc4)cc3)C2)CC1 (mixture of isomers) [compound 339, rac-2-((1S,2R)-2-(cyano(phenyl)(1-((1-(4-(pyridin-4-ylsulfonyl)phenyl)azetidin-3-yl)methyl)piperidin-4-yl)methyl)cyclopentyl)-N-methylacetamide] | 5.2
CNC(=O)C[C@H]1CCC[C@@H]1C(C#N)(c1ccccc1)C1CCN(CC2CN(c3ccc(S(=O)(=O)c4ccncc4)cc3)C2)CC1 (mixture of isomers) [compound 340, rac-2-((1R,2S)-2-(cyano(phenyl)(1-((1-(4-(pyridin-4-ylsulfonyl)phenyl)azetidin-3-yl)methyl)piperidin-4-yl)methyl)cyclopentyl)-N-methylacetamide] | 2.9
N#CC(c1ccccc1)(C1CCN(CC2CN(c3ccc(S(=O)(=O)c4ccncc4)cc3)C2)CC1)[C@H]1CCC[C@@H]1CCO (mixture of isomers) [compound 342, rac-2-((1S,2R)-2-(2-hydroxyethyl)cyclopentyl)-2-phenyl-2-(1-((1-(4-(pyridin-4-ylsulfonyl)phenyl)azetidin-3-yl)methyl)piperidin-4-yl)acetonitrile] | 0.897
COC(=O)N[C@@H]1CCC[C@H]1C(C#N)(c1ccccc1)C1CCN(CC2CN(c3ccc(S(=O)(=O)c4ccccc4)cc3)C2)CC1 (mixture of isomers) [compound 348, methyl (rac-(1R,2S)-2-(cyano(phenyl)(1-((1-(4-(phenylsulfonyl)phenyl)azetidin-3-yl)methyl)piperidin-4-yl)methyl)cyclopentyl) carbamate] | 0.819
